# Assay results published in patent US20080200533A1, “Drug or Pharmaceutical Compounds and a Preparation Thereof” (priority 2005, published 2008).
# Like-named read-outs stand apart in the source and are kept apart here.
# What was measured:
# CYP3A4 = conditions: cited from earlier work
# [1] = oral; cited from earlier work
# [2] = Protocol: 1 gram mole equivalent of (S)-2,6-diaminohexanoic acid is added to the above ethyl acetate solution and stirred at ambient room temperature.
# [3] = cited from earlier work
structure (smiles),measurement,setting,value
CC(C)c1c(C(=O)Nc2ccccc2)c(-c2ccccc2)c(-c2ccc(F)cc2)n1CC[C@@H]1C[C@@H](O)CC(=O)O1 [atorvastatin lactone],affinity to CYP3A4 compared with the acid,CYP3A4,significantly higher affinity
same,"CYP-dependent metabolism to ortho-hydroxy metabolite, compared with atorvastatin acid",CYP3A4; human liver microsomes,20 fold
same,"CYP-dependent metabolism to para-hydroxy metabolite, compared with atorvastatin acid",CYP3A4; human liver microsomes,83 fold
"CC(C)c1c(C(=O)Nc2ccccc2)c(-c2ccccc2)c(-c2ccc(F)cc2)n1CC[C@@H](O)C[C@@H](O)CC(=O)O (relative stereo) [atorvastatin, [R—(R*,R*)]-2-(4-fluorophenyl)-β,δ-dihydroxy-5-((1-methylethyl)-3-phenyl-4-[(phenylamino)-carbonyl]-1H-pyrrole-1-heptanoic acid]",orally administered drug absorbed from the intestine,[1],about 30%
CC(C)c1nc(N(C)S(C)(=O)=O)nc(-c2ccc(F)cc2)c1/C=C/[C@@H](O)C[C@@H](O)CC(=O)O [Rosuvastatin acid],solubility in water (in words),[2],water insoluble
CC[C@H](CC[C@@H](C)[C@H]1CC[C@H]2[C@@H]3CC=C4C[C@@H](O)CC[C@]4(C)[C@H]3CC[C@]12C)C(C)C [beta sitosterol],beta sitosterol soluble in triolein oil,[3]; linked as an ester to decanoic acid,1.1%
same,beta sitosterol soluble in triolein oil,[3]; linked as an ester to lauric acid,0.6%
same,beta sitosterol soluble in triolein oil,[3]; linked as an ester to palmitic acid,0.1%
